The text below walks through data of ChEMBL document CHEMBL1123172, “Inhibitors of dihydropteroate synthase: substituent effects in the side-chain aromatic ring of 6-[[3-(aryloxy)propyl]amino]-5-nitrosoisocytosines and synthesis and inhibitory potency of bridged 5-nitrosoisocytosine-p-aminobenzoic acid analogues” (J Med Chem, 1986).

Each structure is given as a SMILES string.

The assay addresses T1, Dihydropteroate synthase (Escherichia coli K-12, UniProt P0AC13).
T1 sequence (P0AC13 whole entry): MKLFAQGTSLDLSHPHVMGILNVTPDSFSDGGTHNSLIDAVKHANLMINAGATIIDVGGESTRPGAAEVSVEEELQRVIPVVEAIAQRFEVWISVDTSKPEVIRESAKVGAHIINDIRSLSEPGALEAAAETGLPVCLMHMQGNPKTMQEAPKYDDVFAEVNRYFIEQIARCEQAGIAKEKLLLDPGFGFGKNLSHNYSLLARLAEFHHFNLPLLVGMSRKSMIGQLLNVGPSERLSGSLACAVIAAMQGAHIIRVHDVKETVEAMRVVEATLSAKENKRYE
In words: In vitro concentration required to inhibit partially purified dihydropteroate synthase of Escherichia coli by 50%. The class given is functional. The following applies: read-out: I50.

In the case of `COc1ccc(OCCCNc2nc(N)nc(O)c2N=O)cc1`, the IC50 is 7300 nM. With `Cc1ccc(S(=O)(=O)Nc2ccc(OCCCNc3nc(N)nc(O)c3N=O)cc2)cc1`, the IC50 came out at 600 nM. In the case of `CS(=O)(=O)c1ccc(OCCCNc2nc(N)nc(O)c2N=O)cc1` it was 2500 nM; in that of `CCCCOc1ccc(OCCCNc2nc(N)nc(O)c2N=O)cc1`, 2100 nM. Take `Nc1nc(O)c(N=O)c(NCCCOc2ccc(C(F)(F)F)cc2)n1`: the IC50 stood at 1400 nM. For the compound `CCOC(=O)c1ccc(OCCCNc2nc(N)nc(O)c2N=O)cc1`, the IC50 worked out at 2900 nM. For `Nc1nc(O)c(N=O)c(NCCCOc2ccc([N+](=O)[O-])cc2)n1`, the IC50 amounted to 1000 nM. As to `COc1cc(OC)cc(OCCCNc2nc(N)nc(O)c2N=O)c1`, the IC50 stood at 700 nM. In the case of `Nc1nc(O)c(N=O)c(NCCCOc2ccc(O)cc2)n1` it was 2200 nM. In the case of `CCOC(=O)c1ccc(NCCCCNc2nc(N)nc(O)c2N=O)cc1` it was 3000 nM. For `Nc1nc(O)c(N=O)c(NCCCNc2ccc(C(=O)O)cc2)n1`, the IC50 came out at 8900 nM.

With `Nc1nc(NCCCOc2ccc(C(=O)O)cc2)c(N=O)c(=O)[nH]1`, the IC50 came out at 6600 nM. In the case of `Nc1nc(O)c(N=O)c(NCCCOc2ccc(OCc3ccccc3)cc2)n1` it was 3000 nM; in that of `COc1cc(OCCCNc2nc(N)nc(O)c2N=O)cc(OC)c1OC`, 2000 nM; in that of `Nc1nc(O)c(N=O)c(NCCCOc2ccccc2OCc2ccccc2)n1`, 18000 nM.

`Nc1nc(O)c(N=O)c(NCCCOc2cc(Cl)cc(Cl)c2)n1`: the IC50 is 1400 nM. In the case of `Nc1nc(O)c(N=O)c(NCCCCNc2ccc(C(=O)O)cc2)n1` it was 2500 nM. The same measure for `Nc1nc(O)c(N=O)c(NCCCOc2ccc(Cl)cc2)n1`: 1000 nM.
